# Results from ChEMBL document CHEMBL1681738, “Efficient synthesis of triazole moiety-containing nucleotide analogs and their inhibitory effects on a malic enzyme” (Bioorg Med Chem Lett, 2011).
# Active and inactive are the calls of the source. The rule behind the calls is not given here.
# Target: NAD-dependent malic enzyme (Escherichia coli K12) (UniProt P26616)
# Experiment: Inhibition of Escherichia coli K-12 recombinant NAD-dependent malic enzyme at 0.2 mM
# Sequence of NAD-dependent malic enzyme (Escherichia coli K12) (P26616 whole entry, looked up): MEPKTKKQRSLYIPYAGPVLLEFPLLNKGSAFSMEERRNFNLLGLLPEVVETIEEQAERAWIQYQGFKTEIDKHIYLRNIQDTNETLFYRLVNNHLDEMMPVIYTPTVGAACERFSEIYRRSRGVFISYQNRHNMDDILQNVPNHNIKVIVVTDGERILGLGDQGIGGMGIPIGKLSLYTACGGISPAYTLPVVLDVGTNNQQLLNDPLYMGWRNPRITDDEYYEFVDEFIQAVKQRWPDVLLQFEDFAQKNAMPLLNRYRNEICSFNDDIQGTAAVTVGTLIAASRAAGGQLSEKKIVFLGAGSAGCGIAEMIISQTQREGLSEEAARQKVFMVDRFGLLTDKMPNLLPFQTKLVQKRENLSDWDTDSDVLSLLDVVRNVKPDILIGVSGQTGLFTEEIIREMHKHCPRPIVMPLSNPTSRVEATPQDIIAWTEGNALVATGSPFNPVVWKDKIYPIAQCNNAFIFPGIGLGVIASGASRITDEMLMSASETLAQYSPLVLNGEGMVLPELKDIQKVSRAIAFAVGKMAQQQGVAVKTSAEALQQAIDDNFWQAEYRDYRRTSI
row,SMILES,inhibition
1,O=C(NCc1cn([C@@H]2O[C@H](COP(=O)(O)O)[C@@H](O)[C@H]2O)nn1)c1ccccc1,Active
2,CC(=O)NCc1cn([C@@H]2O[C@H](COP(=O)(O)O)[C@@H](O)[C@H]2O)nn1,Active
3,O=P(O)(O)OC[C@H]1O[C@@H](n2cc(-c3ccccc3)nn2)[C@H](O)[C@@H]1O,Active
4,Cc1ccccc1-c1cn([C@@H]2O[C@H](COP(=O)(O)O)[C@@H](O)[C@H]2O)nn1,Active
5,O=P(O)(O)OC[C@H]1O[C@@H](n2cc(-c3ccccc3C(F)(F)F)nn2)[C@H](O)[C@@H]1O,Active
6,O=P(O)(O)OC[C@H]1O[C@@H](n2cc(CCO)nn2)[C@H](O)[C@@H]1O,Active
7,COc1ccc(-c2cn([C@@H]3O[C@H](COP(=O)(O)O)[C@@H](O)[C@H]3O)nn2)cc1,Active
8,O=P(O)(O)OC[C@H]1O[C@@H](n2cc(-c3ccccc3F)nn2)[C@H](O)[C@@H]1O,Active
9,O=P(O)(O)OC[C@H]1O[C@@H](n2cc(-c3ccc(F)cc3)nn2)[C@H](O)[C@@H]1O,Active
10,Nc1ccccc1-c1cn([C@@H]2O[C@H](COP(=O)(O)O)[C@@H](O)[C@H]2O)nn1,Active
11,O=P(O)(O)OC[C@H]1O[C@@H](n2cc(-c3cccc4ccccc34)nn2)[C@H](O)[C@@H]1O,Active
